{
  "source": "patent US20230312551A1",
  "about": "“SALT OF 2-(SUBSTITUTED PYRIMIDINYL) THIAZOLE CARBOXAMIDE COMPOUND, AND COMPOSITION AND USE THEREOF” (SUNSHINE LAKE PHARMA CO., LTD., priority 2020, published 2023)",
  "key": {"[1]": {"experiment": "Stability test experiment A: suspended and stirred in water, XRPD", "type": "physicochemical", "details": "for Crystal form (XRPD) after stirring in water: suspended and stirred in water at room temperature for 24 h", "method": "At room temperature, the test samples (50 mg) were added into EP tubes, water (1 mL) was added respectively. The mixture was suspended and stirred at room temperature for 24 h, then suction filtered, and dried for X-ray powder diffraction (XRPD) analysis and identification. Among them, the experimental results of phosphate crystal form A, phosphate crystal form B, phosphate crystal form C, phosphate crystal form G and phosphate crystal form H are shown in FIGS. 20-24."}, "[2]": {"experiment": "Pharmacokinetics test in Beagle dogs, oral capsules", "type": "in vivo", "details": "male Beagle dogs, oral capsule, 5 mg/kg", "method": "The test samples were filled into capsules for oral administration.\nThree 8-12 kg male Beagle dogs were taken orally administered capsules containing the test sample at a dose of 5 mg/kg, and blood was collected at time points of 0.25, 0.5, 1.0, 2.0, 4.0, 6.0, 8.0 and 24 h. Standard curve was plotted based on concentrations of the samples in a suitable range, the concentration of the test sample in the plasma sample was measured and quantified by AB SCIEX API4000 LC-MS / MS at MRM mode. Pharmacokinetic parameters were calculated according to drug concentration -time curve using a noncompartmental method by WinNonLin 6.3 software."}, "[3]": {"experiment": "Stability test experiment B: high temperature, high humidity and light tests", "type": "physicochemical", "details": "for Purity: HPLC", "method": "(§1) (1) High temperature test: the test samples were taken into the flat weighing bottle, spread into a thin layer of ≤ 5 mm thick, and stored for 30 days at a humidity of 75% ± 5%, 40° C. ± 2° C. and/or 60° C. ± 2° C. On the 5th, 10th, and 30th days, samples were taken for detection according to the key stability inspection items: the color change of the sample was observed, the purity of the sample was determined by HPLC, and the crystal structure of the sample was determined by XRPD.\nas §1, with “(2)” for “(1)”, “humidity” for “temperature”, “25° C., RH 90% ± 5% and/or RH” for “a humidity of”, “5%.” for “5%, 40° C. ± 2° C. and/or 60° C. ± 2° C.”\n(3) Light test: the test samples were taken into the flat weighing bottle, spread into a thin layer of ≤ 5 mm thick, and placed in a light box (with an ultraviolet lamp) with an open mouth. The test samples were stored under the condition of illuminance of 4500 ± 5001x and ultraviolet light ≥ 0.7w/m^2 for 30 days. Samples were taken on the 5th, 10th and 30th days. The color change of the sample was observed, the purity of the sample was determined by HPLC, and the crystal structure of the sample was determined by XRPD."}, "[4]": {"experiment": "Stability test experiment C: storage in PE bag and aluminum foil", "type": "physicochemical", "details": "for Purity: HPLC", "method": "1.0 g of the test samples were packaged in a single-layer PE bag and aluminum foil, and fasten with cable ties. 6 packs were prepared in total and put in a stable box (40° C. ± 2° C., RH 75% ± 5%, or 25° C. ± 2° C., RH 60% ± 10%). Test samples were taken at 0, 3, and 6 months for HPLC and XRPD detection, respectively."}, "[5]": {"experiment": "Hygroscopicity test", "type": "physicochemical", "details": "25° C. ± 1° C., RH 80% ± 2%, 24 hours", "method": "1) A dry stoppered glass weighing bottle was placed in a suitable constant temperature desiccator (RH 80% ± 2%) at 25° C. + 1° C. the day before, and accurately weighed (m1).\n2) An appropriate amount of the test sample was taken and spread in the above weighing bottle. The thickness of the test sample was generally about 1 mm, and it was precisely weighed (m2).\n3) The weighing bottle was opened and placed together with the bottle cap under the above constant temperature and humidity conditions for 24 hours.\n4) The weighing bottle was closed with the bottle cap, and accurately weighed (m3). Calculate: weight gain % = (m3-m2) / (m2-m1) × 100%.\n5) Judgment of hygroscopicity results (Chinese Pharmacopoeia 2015 Edition Appendix 9103 Guidelines for the hygroscopicity test of drugs, experimental conditions: 25° C.±1° C., 80%±2% relative humidity): […]"}, "[6]": {"details": "High humidity (25° C., RH 90% ± 5%), 5 days"}, "[7]": {"details": "High humidity (25° C., RH 90% ± 5%), 10 days"}, "[8]": {"details": "High humidity (25° C., RH 90% ± 5%), 30 days"}, "[9]": {"details": "High temperature (60° C., RH 75%±5%), 5 days"}, "[10]": {"details": "High temperature (60° C., RH 75%±5%), 10 days"}, "[11]": {"details": "High temperature (60° C., RH 75%±5%), 30 days"}, "[12]": {"details": "25° C. ± 2° C., RH 60% ±10%, 3 months"}, "[13]": {"details": "25° C. ± 2° C., RH 60% ±10%, 6 months"}, "[14]": {"details": "40° C. ± 2° C., RH 75% ±5%, 3 months"}, "[15]": {"details": "40° C. ± 2° C., RH 75% ±5%, 6 months"}},
  "data": [
    {"compound": "Cc1nc(-c2cnc(N3CCN(CCCc4c[nH]c5ccc(C#N)cc45)CC3)nc2)sc1C(N)=O", "note": "[Example 3, 2-(2-(4-(3-(5-cyano-1H-indol-3-yl)propyl)piperazin-1-yl)pyrimidin-5-yl)-4-methylthiazol-5-carboxamide]", "values": [
      {"measurement": "Crystal form (XRPD) after stirring in water", "setting": "[1]; listed as phosphate crystal form B", "result": "crystal form changed"}
    ]},
    {"compound": "Cc1nc(-c2cnc(N3CCN(CCCc4c[nH]c5ccc(C#N)cc45)CC3)nc2)sc1C(N)=O", "note": "[Example 4, 2-(2-(4-(3-(5-cyano-1H-indol-3-yl)propyl)piperazin-1-yl)pyrimidin-5-yl)-4-methylthiazol-5-carboxamide]", "values": [
      {"measurement": "Crystal form (XRPD) after stirring in water", "setting": "[1]; listed as phosphate crystal form C", "result": "crystal form changed"}
    ]},
    {"compound": "Cc1nc(-c2cnc(N3CCN(CCCc4c[nH]c5ccc(C#N)cc45)CC3)nc2)sc1C(N)=O", "note": "[Example 5, 2-(2-(4-(3-(5-cyano-1H-indol-3-yl)propyl)piperazin-1-yl)pyrimidin-5-yl)-4-methylthiazol-5-carboxamide]", "values": [
      {"measurement": "Crystal form (XRPD) after stirring in water", "setting": "[1]; listed as phosphate crystal form G", "result": "crystal form changed"}
    ]},
    {"compound": "Cc1nc(-c2cnc(N3CCN(CCCc4c[nH]c5ccc(C#N)cc45)CC3)nc2)sc1C(N)=O", "note": "[Example 2, 2-(2-(4-(3-(5-cyano-1H-indol-3-yl)propyl)piperazin-1-yl)pyrimidin-5-yl)-4-methylthiazol-5-carboxamide]", "values": [
      {"measurement": "Cmax", "setting": "[2]; dog, plasma", "result": 496, "unit": "ng/mL"},
      {"measurement": "Tmax", "setting": "[2]; dog, plasma", "result": 1.67, "unit": "h"},
      {"measurement": "AUClast", "setting": "[2]", "result": 5240, "unit": "h^∗ng/ml"},
      {"measurement": "Crystal structure after stirring in water", "setting": "[1]; stirred in water at room temperature or under heating conditions", "result": "does not change"},
      {"measurement": "Crystal form (XRPD) after stirring in water", "setting": "[1]; listed as phosphate crystal form A", "result": "crystal form did not change"},
      {"measurement": "Outward", "setting": "[3]; 0 day", "result": "Light yellow solid"},
      {"measurement": "Purity", "setting": "[3]; 0 day", "result": 99.24, "unit": "%"},
      {"measurement": "Outward", "setting": "[3]; [6]", "result": "Light yellow solid"},
      {"measurement": "Purity", "setting": "[3]; [6]", "result": 99.27, "unit": "%"},
      {"measurement": "Outward", "setting": "[3]; [7]", "result": "Light yellow solid"},
      {"measurement": "Purity", "setting": "[3]; [7]", "result": 99.21, "unit": "%"},
      {"measurement": "Outward", "setting": "[3]; [8]", "result": "Light yellow solid"},
      {"measurement": "Purity", "setting": "[3]; [8]", "result": 99.22, "unit": "%"},
      {"measurement": "Outward", "setting": "[3]; [9]", "result": "Light yellow solid"},
      {"measurement": "Purity", "setting": "[3]; [9]", "result": 99.26, "unit": "%"},
      {"measurement": "Outward", "setting": "[3]; [10]", "result": "Light yellow solid"},
      {"measurement": "Purity", "setting": "[3]; [10]", "result": 99.23, "unit": "%"},
      {"measurement": "Outward", "setting": "[3]; [11]", "result": "Light yellow solid"},
      {"measurement": "Purity", "setting": "[3]; [11]", "result": 99.24, "unit": "%"},
      {"measurement": "Outward", "setting": "[3]; Light, 5 days", "result": "Yellow solid"},
      {"measurement": "Purity", "setting": "[3]; Light, 5 days", "result": 99.25, "unit": "%"},
      {"measurement": "Outward", "setting": "[3]; Light, 10 days", "result": "Yellow solid"},
      {"measurement": "Purity", "setting": "[3]; Light, 10 days", "result": 99.21, "unit": "%"},
      {"measurement": "Outward", "setting": "[3]; Light, 30 days", "result": "Yellow solid"},
      {"measurement": "Purity", "setting": "[3]; Light, 30 days", "result": 99.10, "unit": "%"},
      {"measurement": "XRPD pattern", "setting": "[3]; high temperature (60° C., RH 75% ± 5%), high humidity (25° C., RH 90% ± 5%) or light, 30 days", "result": "basically unchanged"},
      {"measurement": "Outward", "setting": "[4]; 0 month", "result": "Light yellow solid"},
      {"measurement": "Purity", "setting": "[4]; 0 month", "result": 99.62, "unit": "%"},
      {"measurement": "Outward", "setting": "[4]; [12]", "result": "Light yellow solid"},
      {"measurement": "Purity", "setting": "[4]; [12]", "result": 99.63, "unit": "%"},
      {"measurement": "Outward", "setting": "[4]; [13]", "result": "Light yellow solid"},
      {"measurement": "Purity", "setting": "[4]; [13]", "result": 99.64, "unit": "%"},
      {"measurement": "Outward", "setting": "[4]; [14]", "result": "Light yellow solid"},
      {"measurement": "Purity", "setting": "[4]; [14]", "result": 99.63, "unit": "%"},
      {"measurement": "Outward", "setting": "[4]; [15]", "result": "Light yellow solid"},
      {"measurement": "Purity", "setting": "[4]; [15]", "result": 99.64, "unit": "%"},
      {"measurement": "Crystal structure (XRPD)", "setting": "[4]; stored up to 6 months at 40° C./RH 75% or 25° C./RH 60% in PE bag and aluminum foil", "result": "have not changed"},
      {"measurement": "Conclusion (hygroscopicity feature)", "setting": "[5]", "result": "Slightly hygroscopicity (Less than 2% but not less than 0.2%)"},
      {"measurement": "The hygroscopicity gain", "setting": "[5]", "result": 0.32, "unit": "%"}
    ]},
    {"compound": "Cc1nc(-c2cnc(N3CCN(CCCc4c[nH]c5ccc(C#N)cc45)CC3)nc2)sc1C(N)=O", "note": "[Example 6, 2-(2-(4-(3-(5-cyano-1H-indol-3-yl)propyl)piperazin-1-yl)pyrimidin-5-yl)-4-methylthiazol-5-carboxamide]", "values": [
      {"measurement": "Crystal form (XRPD) after stirring in water", "setting": "[1]; listed as phosphate crystal form H", "result": "crystal form changed"}
    ]}
  ]
}
